From patent EP1095663B1, “Potentiated and stabilised disinfectant having bactericidal and virucidal activity” (Sogeval S.A., priority 1999, dated 2001)
Read-outs that look alike come from different tables or passages of the source.

Columns and labels:
[1] = test system: virus de la maladie de Talfan; experiment: Virucidal activity of mixtures, drop of viral titre, Example 1; format: cell-based; details: 30 min, 20°C, eau dure à 30°f + matières organiques
Description: Pour déterminer l'activité virucide de l'association susmentionnée, on a préparé différents mélanges monoperoxyphtalate de magnésium/cumène sulfonate de sodium/acide malique et on a analysé l'efficacité de ces différents mélanges sur le virus de la maladie de Talfan, ce en appliquant les conditions expérimentales qui correspondent aux exigences en matière d'homologation d'un désinfectant à usage agricole [temps de contact 30 min. - température 20°C - conditions de saleté : eau dure à 30°f + matières organiques (albumine 1 % + extrait de levure 1 %)].

[2] = test system: rat; details: Toxicité aiguë par inhalation; cited from earlier work
[3] = test system: Escherichia coli (CIP 53 154); details: temps de contact 5 min, 20°C, conditions de saleté
Description: (§1) Conformément à l'invention, on a vérifié l'activité bactéricide du monoperoxyphtalate de magnésium vis-à-vis de souches bactériennes fréquentes dans les élevages, à savoir les souches suivantes : Pseudomonas aeruginosa, Escherichia coli, Staphylococcus aureus et Enteroccocus hirae, ce en appliquant les conditions expérimentales qui répondent aux exigences d'homologation d'un désinfectant à usage agricole qui sont définies par la norme NF-T 72-301 (temps de contact 5 min. température 20°C, conditions de saleté : eau dure à 30°f, matière organique = albumine 1 % + extraits de levures 1 %).
(§2) Il est à noter que conformément aux exigences en matière d'homologation (norme NF-T 72-171) une substance est considérée comme active à une concentration d'emploi donnée lorsqu'elle permet de réduire le titre bactérien d'au moins 10^5, soit 5 Log.

[4] = test system: Enterococcus hirae (CIP 58 55); details: temps de contact 5 min, 20°C
Description: as §1, §2

[5] = test system: Staphylococcus aureus (CIP 53 154); details: temps de contact 5 min, 20°C
Description: as §1, §2

[6] = test system: Pseudomonas aeruginosa (CIP A22); details: temps de contact 5 min, 20°C, conditions de saleté
Description: as §1, §2

[7] = test system: truite arc en ciel; details: cited from earlier work
[8] = test de AMES; cited from earlier work
[9] = test system: rats de laboratoire; details: Toxicité moyenne; cited from earlier work
[10] = test system: lapin; details: Toxicité aiguë par voie dermique; cited from earlier work
[11] = test system: virus de la maladie de Talfan
Description: Selon les normes en vigueur, une substance est considérée comme virucide lorsqu'elle permet de réduire le titre viral d'au moins 10^3, c'est-à-dire de 3 Log.
Ce test a été effectué sur le virus de la maladie de Talfan (enterovirus non enveloppé, à ARN).

[12] = test system: Enteroccocus hirae (CIP 58 55)
Description: (§3) On a analysé l'activité bactéricide des produits testés sur les deux souches bactériennes Pseudomonas aeruginosa (CIP A 22) et Enteroccocus hirae (CIP 58 55).
(§4) On a ainsi déterminé les concentrations minimales bactéricides (CMB), d'une part, de monoperoxyphtalate de magnésium (MMPP) et de mélange Ml seul et, d'autre part, de leur association, ce dans des solutions d'eau distillée, d'eau dure à 30°f et dans les conditions de saleté prévues par les normes correspondant aux exigences en matière d'homologation d'un désinfectant à usage agricole (matières organiques : albumine 1 % + extrait de levures 1 %).

[13] = test system: Pseudomonas aeruginosa (CIP A 22)
Description: as §3, §4

[14] = 20°C; cited from earlier work
[15] = test system: rat; details: Toxicité aiguë par voie orale; cited from earlier work
[16] = test system: Pseudomonas aeruginosa, Escherichia coli, Staphylococcus aureus et Enteroccocus hirae; experiment: Bactericidal activity on all four tested strains (summary); format: cell-based; details: conditions requises (NF-T 72-301)
Description: as §1, §2

[17] = conditions de saleté (eau dure à 30°f, albumine 1 % + extraits de levures 1 %)

O=C(O)CC(O)C(=O)O (stereo not drawn) [Ac. Malique, acide malique]
Chute du titre viral (exprimé en Log) ([1]; Ac. Malique 3000 ppm): 0,33 Log

CC(C)c1ccc(S(=O)(=O)[O-])cc1.[Na+] [Cumène sulfonate de sodium, cumène sulfonate de sodium]
Chute du titre viral (exprimé en Log) ([1]; Cumène sulfonate de sodium 1500 ppm): 0 Log

O=C(O)c1ccccc1C(=O)OO [monoperoxyphtalate de magnésium]
LD50 (voie nasale, rat) [2]: 0,84 mg/l
Equivalence Avox [3]: ≥ 150 ppm
Equivalence Avox ([4]; conditions de saleté): ≥ 300 ppm
Concentration active en monoperoxyphtalate de magnésium (réduction > 10^5 Log) [4, 17]: ≥ 5 000 ppm
Equivalence Avox ([5]; conditions de saleté): ≥ 450 ppm
Concentration active en monoperoxyphtalate de magnésium (réduction > 10^5 Log) [5, 17]: ≥ 7 500 ppm
Equivalence Avox [6]: ≥ 300 ppm
LC50 (7 jours, truite arc en ciel) [7]: 38,5 mg :l
Propriétés Mutagenes [8]: Non mutagène selon le test de AMES (norme n° ...)
Effets toxiques (alimentation de rats de laboratoire pendant 90 jours) [9]: > 620 mg/kg de poids vif
LD50 (voie dermique, lapin) [10]: 2000 mg/kg de poids vif
concentration à partir de laquelle activité virucide [11]: ≥ 1 500 ppm
Chute du titre viral (exprimé en Log) ([1]; MMPP 1000 ppm): 2,6 Log
Chute du titre viral (exprimé en Log) ([1]; MMPP 1500 ppm): 3,7 Log
concentrations minimales bactéricides (CMB) ([12]; Eau distillée): 800 ppm
concentrations minimales bactéricides (CMB) ([12]; Eau dure 30°F): 800 ppm
concentrations minimales bactéricides (CMB) ([13]; Eau distillée): 800 ppm
concentrations minimales bactéricides (CMB) ([13]; Eau dure 30°F): 800 ppm
soluble en milieu aqueux [14]: 80 g/L
LD50 (voie orale, rat) [15]: 2300 MG/kg de poids vif
concentration efficace sur les souches testées [16]: 7 500 ppm
concentration efficace sur les souches testées, en oxygène libre ([16]; oxygène libre): 450 ppm
